Assay results as given in patent publication US20090130707A1, “Methods of reducing the inhibitory effect of a redox active metal ion on the enzymatic hydrolysis of cellulosic material” (priority 2007, published 2009).

How the values were obtained:
[1] = Hydrolysis of PCS stripped with chelator; format: biochemical; details: PCS (43 g per liter) stripped overnight with 10 mM chelator, then washed
Procedure: To test whether there was any significant amount of (accessible) Fe(II) in PCS, and whether stripping it with a chelator would improve PCS hydrolysis, washed PCS (43 g per liter) was “stripped” with 10 mM 2,2′-bipyridyl, 1,10-phenanthroline, or 1,7-phenanthroline. After overnight pre-incubation, the PCS was extensively washed to remove the chelator. The hydrolysis was performed in a series of duplicate “mini-scale” hydrolysis reactions performed according to the procedure described in Example 30.

[2] = system: Cellulolytic Enzyme Composition #1; test: mini-scale AVICEL hydrolysis by Cellulolytic Enzyme Composition #1; format: biochemical, Trichoderma reesei; details: 3 mM; 23 g AVICEL and 0.25 g enzyme per liter
Procedure: FIGS. 19A, 19B, 19C, and 19D show the effective inhibitory concentration range of Fe(II) on the hydrolysis of AVICEL® by Cellulolytic Enzyme Composition #1 (A and B) and on the hydrolysis of PASC by Cellulolytic Enzyme Composition #1 (C and D). The AVICEL® hydrolysis was conducted with […] of AVICEL® and 0.25 g of Cellulolytic Enzyme Composition #1 per liter of 50 mM sodium acetate pH 5 at 50° C. FeSO4 (mM): (∘) 0, (+) 1, (Δ) 3, (⋄) 5, (□) 10. Dixon plot linear regression line: 1/Rate=(0.035±0.003)[Fe(II)]+(0.043±0.015), r^2=0.978. Rate was estimated from the hydrolysis difference (%) at 24 and 6 hours. The PASC hydrolysis was conducted with 2 g of PASC and 50 mg of Cellulolytic Enzyme Composition #1 per liter of 50 mM sodium acetate pH 5 at 50° C. Dixon plot linear regression line: 1/Rate=(0.0042±0.0003)[Fe(II)]+(0.059±0.002), r^2=0.994. Rates were estimated from the hydrolysis difference (%) at 7 hours.
(§1) The effect of various salts (FeSO4, FeCl2, NaCl, Na2SO4, MnSO4, MnCl2) was determined in the hydrolysis of PCS by Cellulolytic Enzyme Composition #2. The PCS hydrolysis was performed in duplicate in capped 1.7 ml EPPENDORF® tubes (“mini-scale”) containing 1 ml suspensions of 43.4 g of PCS (dry weight) per liter, 10 mM salts in 50 mM sodium acetate pH 5. Cellulolytic Enzyme Composition #2 was added at 0.25 g per liter. Reactions without the addition of the salt served as controls. The capped tubes were incubated at 50° C. in an INNOVA® 4080 incubator shaker (New Brunswick Scientific Co., Inc., Edison, N.J., USA) at 150 rpm.
In one series of “mini-scale” hydrolysis reactions performed according to the procedure described in Example 30, the effect of 1 mM to 10 mM FeSO4 was evaluated in the hydrolysis of AVICEL® by Cellulolytic Enzyme Composition #1.

[3] = system: Cellulolytic Enzyme Composition #1; test: mini-scale PCS hydrolysis by Cellulolytic Enzyme Composition #1; format: biochemical, Trichoderma reesei; details: PCS hydrolysis (FIGS. 23A-23D)
Procedure: as §1
(§2) Aliquots of the suspensions, sampled over time, were filtered by centrifugation using a 0.45 μm MULTISCREEN® HV membrane (Millipore, Billerica, Mass., USA) at 2000 rpm for 15 minutes using a SORVALL® RT7 centrifuge (Thermo Fisher Scientific, Waltham, Mass., USA). When not used immediately, the filtered sugary aliquots were frozen at −20° C. Sugar concentrations of the samples diluted in 0.005 M H2SO4 were measured after elution from a 4.6×250 mm AMINEX® HPX-87H column (Bio-Rad, Hercules, Calif., USA) by 0.005 M H2SO4 at a flow rate of 0.4 ml/minute at 65° C. with quantitation by integration of glucose and cellobiose using refractive index detection (CHEMSTATION®, AGILENT® 1100 HPLC, Agilent Technologies, Santa Clara, Calif., USA) calibrated with standards of glucose and cellobiose. The resultant equivalents were used to calculate the percentage of cellulose conversion for each reaction.
Example 30 was repeated with both Cellulolytic Enzyme Composition #1 and Cellulolytic Enzyme Composition #2. Soluble reducing sugars were measured by HPLC as described in Example 30. Reactions without the addition of FeSO4 served as controls.
The hydrolysis was performed in a series of duplicate “mini-scale” hydrolysis reactions according to the procedure described in Example 30.

[4] = molecular target: Cellulolytic Enzyme Composition #1; test: mini-plate-scale PASC hydrolysis by Cellulolytic Enzyme Composition #1; format: biochemical, Trichoderma reesei; details: PASC; Enzymes: Cellulolytic Enzyme Composition #1; read-out: I50 (mean ± SD)
Procedure: (§3) Various (biologically common) divalent metal cations with variable ionic radii were tested in 2.8 ml Deep Well Microplates (VWR International, West Chester, Pa., USA) (“mini-plate-scale”) containing 1 ml suspensions of 25 g of AVICEL® per liter in 50 mM sodium acetate pH 5 at 50° C. Cellulolytic Enzyme Composition #1 was added at 0.25 g per liter for each hydrolysis. The mini-plates were sealed at 160° C. for 2 seconds using an ABGENE® ALPS 300™ sealer (ABgene, Rochester, N.Y., USA). The sealed mini-plates were incubated at 50° C. in an INNOVA® 4080 incubator shaker at 150 rpm. Soluble reducing sugars were measured by HPLC as described in Example 30.
In one series of “mini-scale” hydrolysis reactions performed according to the procedure described in Example 30, the effect of 1 mM to 10 mM FeSO4 was evaluated in the hydrolysis of AVICEL® by Cellulolytic Enzyme Composition #1. In a series of “mini-plate-scale” hydrolysis reactions performed according to the procedure described in Example 32, the effect of 1 mM to 10 mM FeSO4 was evaluated in the hydrolysis of PASC by Cellulolytic Enzyme Composition #1, except 2 g of PASC and 0.05 g Cellulolytic Enzyme Composition #1 per liter of 50 mM sodium acetate pH 5 were used.
The above study was extended to a range of concentration of Fe(II) and cellulose. In a series of “mini-plate-scale” hydrolysis reactions performed according to the procedure described in Example 32, except that 0.1 to 10 mM FeSO4, 0.6 to 4 g of PASC and 0.01 g of Cellulolytic Enzyme Composition #1 per liter of 50 mM sodium acetate pH 5 were used.

[5] = system: Cellulolytic Enzyme Composition #1; test: mini-plate-scale AVICEL hydrolysis by Cellulolytic Enzyme Composition #1; format: biochemical, Trichoderma reesei
Procedure: as §3
Iron-chelator complexes of variable size or redox property were tested for their ability to inhibit enzymatic hydrolysis of cellulose. […]

[6] = molecular target: T1, Trichoderma reesei Cel7B endoglucanase I (Trichoderma reesei, UniProt P07981); test: PASC hydrolysis by Cel7B endoglucanase I; format: biochemical
T1 construct: made in house; host or cells: Aspergillus oryzae JaL250
T1 sequence (P07981 23-459): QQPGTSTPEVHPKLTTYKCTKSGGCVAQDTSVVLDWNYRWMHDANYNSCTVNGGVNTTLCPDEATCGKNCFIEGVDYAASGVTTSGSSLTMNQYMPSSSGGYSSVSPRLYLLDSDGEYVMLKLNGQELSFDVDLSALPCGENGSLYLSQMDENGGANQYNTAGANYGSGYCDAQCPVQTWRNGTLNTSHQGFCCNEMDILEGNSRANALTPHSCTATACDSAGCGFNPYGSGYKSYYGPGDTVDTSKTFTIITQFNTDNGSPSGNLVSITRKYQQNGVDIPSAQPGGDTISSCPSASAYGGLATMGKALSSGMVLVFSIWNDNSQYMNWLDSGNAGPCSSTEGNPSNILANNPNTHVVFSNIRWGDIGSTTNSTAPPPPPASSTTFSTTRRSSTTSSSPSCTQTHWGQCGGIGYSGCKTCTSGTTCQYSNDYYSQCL

[7] = ionic radii in crystals, 6-ligand coordination; cited from earlier work
[8] = molecular target: T2, Trichoderma reesei Cel7A cellobiohydrolase I (Trichoderma reesei, UniProt P62694); test: PASC hydrolysis by Cel7A cellobiohydrolase I; format: biochemical
T2 construct: made in house
T2 sequence (P62694 18-513): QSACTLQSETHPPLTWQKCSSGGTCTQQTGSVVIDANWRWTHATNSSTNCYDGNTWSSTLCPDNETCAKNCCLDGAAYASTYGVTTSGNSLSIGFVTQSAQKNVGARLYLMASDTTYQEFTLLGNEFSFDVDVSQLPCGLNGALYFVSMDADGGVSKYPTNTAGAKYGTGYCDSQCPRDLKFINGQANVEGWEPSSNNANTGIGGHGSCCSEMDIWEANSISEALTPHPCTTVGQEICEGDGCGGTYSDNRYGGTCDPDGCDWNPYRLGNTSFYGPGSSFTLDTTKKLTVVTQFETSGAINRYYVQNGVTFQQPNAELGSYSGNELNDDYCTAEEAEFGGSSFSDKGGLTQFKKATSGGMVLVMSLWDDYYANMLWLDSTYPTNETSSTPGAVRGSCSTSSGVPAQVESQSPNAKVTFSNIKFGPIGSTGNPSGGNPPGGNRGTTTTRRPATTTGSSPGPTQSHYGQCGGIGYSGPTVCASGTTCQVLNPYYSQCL

[9] = molecular target: T3, Aspergillus oryzae CEL3A beta-glucosidase (Aspergillus oryzae, UniProt Q2UUD6); test: Cellobiose hydrolysis by CEL3A beta-glucosidase; format: biochemical
T3 construct: made in house
T3 sequence (Q2UUD6 20-861): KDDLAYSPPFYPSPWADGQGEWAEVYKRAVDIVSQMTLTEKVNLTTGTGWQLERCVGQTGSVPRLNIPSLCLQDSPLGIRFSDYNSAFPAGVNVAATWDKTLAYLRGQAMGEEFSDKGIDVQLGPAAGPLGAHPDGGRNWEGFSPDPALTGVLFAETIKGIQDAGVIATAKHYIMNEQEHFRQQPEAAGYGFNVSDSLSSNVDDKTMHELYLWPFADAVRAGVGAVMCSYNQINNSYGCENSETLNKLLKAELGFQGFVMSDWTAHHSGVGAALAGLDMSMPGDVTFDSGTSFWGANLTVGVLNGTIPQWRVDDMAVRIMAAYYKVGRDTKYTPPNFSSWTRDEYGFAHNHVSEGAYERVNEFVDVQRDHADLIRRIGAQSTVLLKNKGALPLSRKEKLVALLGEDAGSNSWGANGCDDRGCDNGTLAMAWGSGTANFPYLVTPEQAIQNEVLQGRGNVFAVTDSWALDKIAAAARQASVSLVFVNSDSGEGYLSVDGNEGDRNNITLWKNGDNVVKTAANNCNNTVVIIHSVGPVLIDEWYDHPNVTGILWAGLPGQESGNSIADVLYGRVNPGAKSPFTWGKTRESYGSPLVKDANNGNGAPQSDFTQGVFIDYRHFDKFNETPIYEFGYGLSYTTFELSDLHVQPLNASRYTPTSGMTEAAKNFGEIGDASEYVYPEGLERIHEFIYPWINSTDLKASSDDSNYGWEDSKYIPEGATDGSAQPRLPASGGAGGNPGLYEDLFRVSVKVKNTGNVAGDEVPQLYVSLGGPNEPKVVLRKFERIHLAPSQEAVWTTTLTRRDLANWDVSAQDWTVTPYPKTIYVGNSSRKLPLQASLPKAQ
Procedure: The Fe(II) inhibition of Aspergillus oryzae CEL3A beta-glucosidase was measured similarly, except cellobiose replaced PASC. The initial rate vs Fe(II) concentration plots appeared as “mixed” type, whose complexity prevented extraction of Kis.

[10] = molecular target: T4, Trichoderma reesei Cel5A endoglucanase II (Trichoderma reesei, UniProt P07982); test: PASC hydrolysis by Cel5A endoglucanase II; format: biochemical
T4 construct: made in house; host or cells: Aspergillus oryzae JaL250 (transformant JaL250AlLo27)
T4 sequence (P07982 22-418): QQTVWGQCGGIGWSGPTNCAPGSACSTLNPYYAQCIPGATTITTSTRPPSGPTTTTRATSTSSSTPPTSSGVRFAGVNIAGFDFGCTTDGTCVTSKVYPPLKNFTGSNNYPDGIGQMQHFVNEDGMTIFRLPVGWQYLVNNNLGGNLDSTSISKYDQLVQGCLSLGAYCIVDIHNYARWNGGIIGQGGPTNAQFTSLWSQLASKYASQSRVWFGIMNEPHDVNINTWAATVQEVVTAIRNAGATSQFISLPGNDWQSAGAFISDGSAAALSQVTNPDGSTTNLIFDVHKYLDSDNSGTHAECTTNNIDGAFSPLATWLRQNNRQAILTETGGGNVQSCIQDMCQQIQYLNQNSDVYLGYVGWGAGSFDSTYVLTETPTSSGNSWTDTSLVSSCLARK

[11] = system: Cellulolytic Enzyme Composition #2; test: mini-scale PCS hydrolysis by Cellulolytic Enzyme Composition #2; format: biochemical, Trichoderma reesei; details: 10 mM Fe(II) (FIG. 17B)
Procedure: Corn stover was pretreated at the U.S. Department of Energy National Renewable Energy Laboratory (NREL), […], Colo., USA, using dilute sulfuric acid. The following conditions were used for the pretreatment: 1.4 wt % sulfuric acid at 195° C. for 4.5 minutes. According to limit digestion with excess cellulase enzymes, the water-insoluble solids in the pretreated corn stover (PCS) contained 59.5% cellulose. Prior to use, the PCS was washed with a large volume of deionized water until soluble acid and sugars were removed. The dry weight of the water-washed PCS was 19.16%.
The effect of various salts (FeSO4, FeCl2, NaCl, Na2SO4, MnSO4, MnCl2) was determined in the hydrolysis of PCS by Cellulolytic Enzyme Composition #2. […] Cellulolytic Enzyme Composition #2 was added at 0.25 g per liter. Reactions without the addition of the salt served as controls. The capped tubes were incubated at 50° C. in an INNOVA® 4080 incubator shaker (New Brunswick Scientific Co., Inc., Edison, N.J., USA) at 150 rpm.
as §2
The degree of cellulose conversion to glucose plus cellobiose (% conversion) was calculated using the following equation:
% Conversion=(glucose+cellobiose×1.053)(mg/ml)×100×162/cellulose(mg/ml)×180)=(glucose+cellobiose×1.053)(mg/ml)×100/(cellulose(mg/ml)×1.111)
In this equation the factor 1.111 reflects the weight gain in converting cellulose to glucose, and the factor 1.053 reflects the weight gain in converting cellobiose to glucose. Cellulose in PCS was determined by a limit digest of PCS to release glucose and cellobiose.

[12] = 0-15 mM FeSO4, 0.6-4 g PASC per liter

SMILES	increase in hydrolysis extent [1]	Effect on AVICEL hydrolysis [2]	Effect of chelator on enzyme in the absence of FeSO4 [3]	IC50 [4] [mM]	Effect on enzymatic cellulolysis: loss in initial rate ([5]; 10 mM, 25 g AVICEL and 0.25 g enzyme per liter, pH 5, 50° C.)	Effect on enzymatic cellulolysis: loss in extended hydrolysis extent ([5]; 10 mM, 25 g AVICEL and 0.25 g enzyme per liter, pH 5, 50° C., after 4 days)	IC50 ([5]; Avicel, Enzymes: Cellulolytic Enzyme Composition #1, read-out: I50 (mean ± SD)) [mM]	Type of initial rate vs Fe(II) concentration plots [6, 12]	IC50 ([6]; PASC, CEL7B EGI, 40 mg enzyme per liter, read-out: I50 (mean ± SD)) [mM]	Radius [7] [Å]	Type of initial rate vs Fe(II) concentration plots [8, 12]	IC50 ([8]; PASC, CEL7A CBHI, 40 mg enzyme per liter, read-out: I50 (mean ± SD)) [mM]	Type of initial rate vs Fe(II) concentration plots ([9]; 0-15 mM FeSO4, cellobiose replaced PASC)	IC50 ([9]; CEL3A BG, on cellobiose hydrolysis, read-out: I50 (mean ± SD)) [mM]	Type of initial rate vs Fe(II) concentration plots [10, 12]	IC50 ([10]; PASC, CEL5A EGII, 40 mg enzyme per liter, read-out: I50 (mean ± SD)) [mM]	activity loss [11]
c1ccc(-c2ccccn2)nc1 [2,2′-bipyridyl]	approximately 4%	No significant inhibition	significant inhibition	–	–	–	–	–	–	–	–	–	–	–	–	–	–
[Fe+2] [Fe(II)]	–	–	–	14 ± 1	~70% loss in initial rate, ~70% loss in extended hydrolysis extent	~70% loss in initial rate, ~70% loss in extended hydrolysis extent	2 ± 1	mixed	1.8 ± 0.2	0.61	mixed	7 ± 2	mixed	13 ± 2	mixed	12 ± 4	approximately 70%
